{"source": "paper PMC7718273", "about": "(Scientific Reports, 2020)", "molecules": {"B1": {"name": "hFGF21: full-length recombinant human FGF21 from Cell Science, given i.p. alone or with BR103354 (protein, UniProt Q9NSA1 29-209, looked up)", "Fibroblast growth factor 21": "HPIPDSSPLLQFGGQVRQRYLYTDDAQQTEAHLEIREDGTVGGAADQSPESLLQLKALKPGVIQILGVKTSRFLCQRPDGALYGSLHFDPEACSFRELLLEDGYNVYQSEAHGLPLHLPGNKSPHRDPAPRGPARFLPLPGLPPALPEPPGILAPQPPDVGSSDPLSMVGPSQGRSPSYAS"}}, "key": {"[1]": {"tested_on": "CDAHFD NASH mouse model", "assay": "In vivo study using CDAHFD mice (NASH model)", "set-up": "species or system C57BL/6J mice", "settings": "positive control 3 mg/kg p.o. for 10 weeks", "method": "C57BL/6J mice were fed normal chow diet (n = 5) or choline-deficient, L-amino acid-defined, high-fat diet (CDAHFD) for 4 weeks to induce NASH (n = 8–10/group). […] (a) Relative FAP activity was assessed by FRET-quench and serum FGF21 level at week 14. […] (c) Steatosis scores ranged from 0 to 3 (normal = 0, minimal = 1, moderate = 2, marked = 3) were determined. Hepatic steatosis and fibrosis (Picrosirius red stain) were analyzed in a blinded manner or by digital image analyzer. (d–e) Histological evaluations of liver tissue were performed in each group. Paraffin-embedded liver sections were stained with H&E (d) and Sirius red (e). Representative photographs of each group were presented. Images were obtained at 100x (Scale bar = 50 µm).\nMale C57BL/6J mice (5 weeks of age) were fed with a CDAHFD consisting of 60% kcal fat and 0.1% methionine. […] For the CDAHFD model, compound treatments were started at the beginning of week 4 on the diet and continued until week 14. […] Liver tissue was then collected. All other measurements were done similarly as described above. Staining was performed using H&E and Picrosirius red as described previously. Areas of positive Sirius red were quantified by computer-based morphometric analysis."}, "[2]": {"tested_on": "diet-induced obese mice", "set-up": "method as in PMID 27689014", "settings": "cited from earlier work"}, "[3]": {"tested_on": "ob/ob mice", "assay": "Acute study using ob/ob mice: blood glucose and intact hFGF21", "settings": "hFGF21 0.1 mg/kg i.p. alone", "procedure": "Blood was collected at the indicated time points. (a) Nonfasting blood glucose levels were measured at the indicated time points. […] (c) Plasma intact hFGF21 levels were measured using ELISA kit at 1, 3, 6, and 9 h. All data are the means ± S.D. *P < 0.05, **P < 0.01 and *** P < 0.001 vs. vehicle group.\nBlood was promptly collected by orbital bleeding that was allowed to clot, and supernatant was collected after centrifugation at 4 °C at 3000 rpm. Serum intact FGF21 concentrations were measured by intact hFGF21 ELISA (Alpco, Keewaydin Dr, Salem, NH, catalog no. 43-FGFHU-E01)[29]."}, "[4]": {"settings": "animals administered with Talabostat alone"}}, "note": "“Also recorded” adds a separate entry of the source.", "data": [{"molecule": "O=C(O)c1cc(F)c2nc(N3[C@@H]4CC[C@H]3C[C@@H](OCc3c(-c5ccccc5OC(F)(F)F)noc3C3CC3)C4)sc2c1", "note": "[LJN, Tropifexor, reference compound]", "values": [{"measurement": "all parameters of the CDAHFD study", "setting": "[1]", "result": "All parameters showed improvements"}]}, {"molecule": "CC(C)[C@H](N)C(=O)N1CCC[C@H]1B(O)O", "note": "[Talabostat]", "values": [{"measurement": "adiposity", "setting": "[2]; [4]", "result": "decreased"}, {"measurement": "body weight", "setting": "[2]; [4]", "result": "decreased"}, {"measurement": "food consumption", "setting": "[2]; [4]", "result": "decreased"}, {"measurement": "endogenous intact FGF21 level", "setting": "[2]; diet-induced obese mice", "result": "increased"}, {"measurement": "insulin resistance / insulin sensitivity", "setting": "[2]; diet-induced obese mice", "result": "improved insulin resistance; also recorded: improved insulin sensitivity"}]}, {"molecule": "B1", "values": [{"measurement": "decrease of blood glucose AUC", "setting": "[3]", "result": "about 20%"}, {"measurement": "nonfasting blood glucose level, maximum average reduction to", "setting": "[3]; 3 h, starting from 340 mg/dL", "result": 230, "unit": "mg/dL"}]}]}
